Experimental findings from patent US20240391936A1, “TETRAHYDROTHIENO PYRIDINE DERIVATIVES AS DDRS INHIBITORS” (CHIESI FARMACEUTICI S.P.A., priority 2021, published 2024) are described below.

Assay [1] deals with T1, DDR2 (Homo sapiens, UniProt Q16832).
T1 sequence (Q16832 22-855): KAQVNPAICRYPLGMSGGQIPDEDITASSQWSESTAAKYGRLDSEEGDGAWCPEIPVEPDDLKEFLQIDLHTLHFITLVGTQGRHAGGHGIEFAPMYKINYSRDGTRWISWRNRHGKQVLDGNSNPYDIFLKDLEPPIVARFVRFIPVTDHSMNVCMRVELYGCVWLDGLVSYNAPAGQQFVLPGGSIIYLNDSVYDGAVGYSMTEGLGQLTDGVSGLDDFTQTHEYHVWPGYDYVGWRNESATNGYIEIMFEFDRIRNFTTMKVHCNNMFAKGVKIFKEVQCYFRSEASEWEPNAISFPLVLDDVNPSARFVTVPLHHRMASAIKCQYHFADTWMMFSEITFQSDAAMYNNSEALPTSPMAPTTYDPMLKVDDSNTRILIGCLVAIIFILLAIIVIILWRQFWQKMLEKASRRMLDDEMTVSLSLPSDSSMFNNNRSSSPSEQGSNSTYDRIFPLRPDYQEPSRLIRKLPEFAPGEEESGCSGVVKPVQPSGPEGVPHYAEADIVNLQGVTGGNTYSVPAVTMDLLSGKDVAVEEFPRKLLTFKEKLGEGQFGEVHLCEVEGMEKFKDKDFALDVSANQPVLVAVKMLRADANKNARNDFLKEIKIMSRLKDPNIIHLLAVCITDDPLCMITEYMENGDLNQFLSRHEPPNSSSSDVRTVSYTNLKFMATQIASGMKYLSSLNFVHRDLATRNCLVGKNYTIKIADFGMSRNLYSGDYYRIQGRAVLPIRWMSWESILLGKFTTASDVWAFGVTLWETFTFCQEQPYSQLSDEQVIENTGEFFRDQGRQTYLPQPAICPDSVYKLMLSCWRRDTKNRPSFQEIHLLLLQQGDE
Briefly: DDR2 binding assay (LanthaScreen Europium Kinase Binding assay). The note with it: binding assay, 5 nM DDR2, 10 nM Kinase Tracer 178; Ki from IC50 by Cheng-Prusoff; read-out: Ki DDR2. On the set-up: purchased Life Technologies. In short, it runs like this:
(§1)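 Compounds incubated 1 h at room temperature with 5 nM kinase, Kinase Tracer 178 (20 nM for DDR1, 10 nM for DDR2) and 2 nM Eu-anti-GST antibody in pH 7.5 HEPES/MgCl2/EGTA/BRIJ35 buffer. TR-FRET 665/615 nm ratio read after 340 nm excitation; IC50 from 4-parameter fit, converted to Ki by Cheng-Prusoff.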
In general terms: In TR-FRET formats the signal depends on donor and acceptor labels being close together.

Assay [2] addresses T2, DDR1 (Homo sapiens, UniProt Q08345). The experiment in a line: DDR1 cell based assay (PathHunter U2OS DDR1 assay). The note with it: U2OS-DDR1 cells, bovine Type II Collagen 20 μg/ml. On the set-up: host or cells: U2OS-DDR1 (PathHunter). The method in brief:
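U2OS-DDR1 PathHunter cells preincubated 30 min with compound, then stimulated overnight at 37 °C with 20 μg/ml bovine type II collagen. Luminescent complementation signal read after 1 h detection at room temperature; normalized to vehicle (0%) and collagen-only (100%) controls, IC50 from variable-slope sigmoidal fit.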

Assay [3] addresses T2, DDR1. The experiment in a line: DDR1 binding assay (LanthaScreen Europium Kinase Binding assay). Also noted: purchased Carna Biosciences. The note with it: binding assay, 5 nM DDR1, 20 nM Kinase Tracer 178; Ki from IC50 by Cheng-Prusoff; read-out: Ki DDR1. In short, it runs like this:
as §1

T2 sequence (Q08345 19-913): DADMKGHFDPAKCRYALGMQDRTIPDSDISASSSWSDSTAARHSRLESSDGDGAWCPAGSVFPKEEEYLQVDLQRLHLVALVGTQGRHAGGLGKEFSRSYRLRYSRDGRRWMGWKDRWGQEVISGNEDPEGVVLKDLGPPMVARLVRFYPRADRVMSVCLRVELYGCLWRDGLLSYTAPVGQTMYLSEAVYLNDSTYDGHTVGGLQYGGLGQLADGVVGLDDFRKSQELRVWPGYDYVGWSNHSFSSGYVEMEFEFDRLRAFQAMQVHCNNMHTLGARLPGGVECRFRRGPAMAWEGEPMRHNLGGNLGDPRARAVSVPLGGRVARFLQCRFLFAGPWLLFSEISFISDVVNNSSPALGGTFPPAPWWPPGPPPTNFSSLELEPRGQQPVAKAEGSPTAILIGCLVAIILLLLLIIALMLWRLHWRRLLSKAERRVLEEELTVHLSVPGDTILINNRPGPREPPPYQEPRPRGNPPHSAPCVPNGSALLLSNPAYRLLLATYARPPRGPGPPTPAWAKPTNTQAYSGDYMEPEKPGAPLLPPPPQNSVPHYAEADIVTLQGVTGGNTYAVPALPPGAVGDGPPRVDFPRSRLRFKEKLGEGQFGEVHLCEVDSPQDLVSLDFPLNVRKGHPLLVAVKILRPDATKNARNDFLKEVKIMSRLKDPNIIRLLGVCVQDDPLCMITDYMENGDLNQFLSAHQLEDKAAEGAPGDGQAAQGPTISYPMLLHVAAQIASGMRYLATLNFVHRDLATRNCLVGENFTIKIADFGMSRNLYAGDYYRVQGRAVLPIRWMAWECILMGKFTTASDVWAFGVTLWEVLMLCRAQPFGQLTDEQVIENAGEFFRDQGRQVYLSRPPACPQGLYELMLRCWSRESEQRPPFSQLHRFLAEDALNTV

As usually defined, the Ki is the equilibrium dissociation constant of an inhibitor or competing ligand from its target. Usually IC50 stands for the concentration needed to halve the response being measured. A higher IC50 goes with weaker potency. Take `CN(C)CC1CCN(Cc2cc(NC(=O)c3csc4c3CCN(C(=O)c3cnc5ccccn35)C4)cc(C(F)(F)F)c2)C1` (stereo not drawn) [Example 55, N-(3-((3-((dimethylamino)methyl)pyrrolidin-1-yl)methyl)-5-(trifluoromethyl)phenyl)-6-(imidazo[1,2-a]pyridine-3-carbonyl)-4,5,6,7-tetrahydrothieno[2,3-c]pyridine-3-carboxamide]: the Ki in assay [1] and in assay [3] was < 25 nM each time. For the same compound, the IC50 in assay [2] lay in the range of 50 to 80 nM.

As to `CN(C)[C@@H]1CCN(Cc2cc(NC(=O)c3csc4c3CCN(Cc3cnc5cnccn35)C4)cc(C(F)(F)F)c2)C1` [Example 160, (R)-N-(3-((3-(dimethylamino)pyrrolidin-1-yl)methyl)-5-(trifluoromethyl)phenyl)-6-(imidazo[1,2-a]pyrazin-3-ylmethyl)-4,5,6,7-tetrahydrothieno[2,3-c]pyridine-3-carboxamide], the inhibitory constant (Ki) in assay [1] and in assay [3] was < 25 nM each time. The IC50 in assay [2] lay in the range of 50 to 80 nM.

Consider `O=C(Nc1cncc(C(F)(F)F)c1)c1csc2c1CCN(Cc1cnn3ccncc13)C2` [Example 154, 6-(pyrazolo[1,5-a]pyrazin-3-ylmethyl)-N-(5-(trifluoromethyl)pyridin-3-yl)-4,5,6,7-tetrahydrothieno[2,3-c]pyridine-3-carboxamide], for which the Ki in assay [1] and in assay [3] was < 25 nM in each case. For the same compound, the IC50 in assay [2] was 50 to 80 nM.

Consider `O=C(Nc1ccc(CO)c(C(F)(F)F)c1)c1csc2c1CCN(C(=O)c1cnn3ccncc13)C2` [Example 180, N-(4-(hydroxymethyl)-3-(trifluoromethyl)phenyl)-6-(pyrazolo[1,5-a]pyrazine-3-carbonyl)-4,5,6,7-tetrahydrothieno[2,3-c]pyridine-3-carboxamide], for which the Ki in assay [1] and in assay [3] was < 25 nM each time. Further, the IC50 in assay [2] lay within 25 to 50 nM.

In the case of `CC(C)(C)c1cc(NC(=O)c2csc3c2CCN(C(=O)c2cnc4ccccn24)C3)n(-c2ccccc2)n1` [Example 6, N-(3-(tert-butyl)-1-phenyl-1H-pyrazol-5-yl)-6-(imidazo[1,2-a]pyridine-3-carbonyl)-4,5,6,7-tetrahydrothieno[2,3-c]pyridine-3-carboxamide], the inhibition constant Ki in assay [1] and in assay [3] was < 25 nM each time. For the same compound, the IC50 in assay [2] fell in the range of 25 to 50 nM.

Take `Cn1nc(C2CCC2)cc1NC(=O)c1csc2c1CCN(C(=O)c1cnc3ccccn13)C2` [Example 35, N-(3-cyclobutyl-1-methyl-1H-pyrazol-5-yl)-6-(imidazo[1,2-a]pyridine-3-carbonyl)-4,5,6,7-tetrahydrothieno[2,3-c]pyridine-3-carboxamide]: the Ki in assay [1] and in assay [3] was < 25 nM throughout. The compound also yielded a half-inhibitory concentration (IC50) in assay [2] of 25 to 50 nM.

Consider `Cc1n[nH]c2ncc(CN3CCc4c(C(=O)Nc5cc(OCCN6CCCC6)cc(C(F)(F)F)c5)csc4C3)cc12` [Example 163, 6-[(3-methyl-1H-pyrazolo[3,4-b]pyridin-5-yl)methyl]-N-[3-(2-pyrrolidin-1-ylethoxy)-5-(trifluoromethyl)phenyl]-5,7-dihydro-4H-thieno[2,3-c]pyridine-3-carboxamide], for which the inhibition constant Ki in assay [1] and in assay [3] was < 25 nM in each case. For the same compound, the half-inhibitory concentration (IC50) in assay [2] is < 25 nM.

`O=C(Nc1cncc(OC(F)F)c1)c1csc2c1CCN(C(=O)c1cnc3ccccn13)C2` [Example 118, N-(5-(difluoromethoxy)pyridin-3-yl)-6-(imidazo[1,2-a]pyridine-3-carbonyl)-4,5,6,7-tetrahydrothieno[2,3-c]pyridine-3-carboxamide]: the Ki in assay [1] and in assay [3] was < 25 nM throughout. This compound also yielded an IC50 in assay [2] of 25 to 50 nM.

With `O=C(Nc1cccc(C(F)(F)F)c1)c1csc2c1CCN(Cc1cnc3ccnn3c1)C2` [Example 88, 6-(pyrazolo[1,5-a]pyrimidin-6-ylmethyl)-N-(3-(trifluoromethyl)phenyl)-4,5,6,7-tetrahydrothieno[2,3-c]pyridine-3-carboxamide], the Ki in assay [1] and in assay [3] was < 25 nM in each case. Besides, in assay [2], the half-inhibitory concentration (IC50) is < 25 nM.

With `CCn1nc(C(C)(C)C)cc1NC(=O)c1csc2c1CCN(C(=O)c1cnc3ccccn13)C2` [Example 42, N-(3-(tert-butyl)-1-ethyl-1H-pyrazol-5-yl)-6-(imidazo[1,2-a]pyridine-3-carbonyl)-4,5,6,7-tetrahydrothieno[2,3-c]pyridine-3-carboxamide], the inhibitory constant (Ki) in assay [1] and in assay [3] was < 25 nM throughout. In assay [2], this compound returned a 50% inhibitory concentration (IC50) of 50 to 80 nM.

As to `COc1ccn2ncc(C(=O)N3CCc4c(C(=O)Nc5cncc(C(F)(F)F)c5)csc4C3)c2c1` [Example 140, 6-(5-methoxypyrazolo[1,5-a]pyridine-3-carbonyl)-N-(5-(trifluoromethyl)pyridin-3-yl)-4,5,6,7-tetrahydrothieno[2,3-c]pyridine-3-carboxamide], the Ki in assay [1] and in assay [3] was < 25 nM throughout. Further, the IC50 in assay [2] was < 25 nM.

Regarding `CN(CCO)Cc1cc(NC(=O)c2csc3c2CCN(C(=O)c2cnc4ccccn24)C3)cc(C(F)(F)F)c1` [Example 57, N-(3-(((2-hydroxyethyl)(methyl)amino)methyl)-5-(trifluoromethyl)phenyl)-6-(imidazo[1,2-a]pyridine-3-carbonyl)-4,5,6,7-tetrahydrothieno[2,3-c]pyridine-3-carboxamide], the Ki in assay [1] and in assay [3] was < 25 nM each time. The IC50 in assay [2] is < 25 nM.

Turning to `CN1CCC(Oc2cc(NC(=O)c3csc4c3CCN(C(=O)c3cnc5ccccn35)C4)cc(C(F)(F)F)c2)C1` (stereo not drawn) [Example 63, 6-(imidazo[1,2-a]pyridine-3-carbonyl)-N-[3-(1-methylpyrrolidin-3-yl)oxy-5-(trifluoromethyl)phenyl]-5,7-dihydro-4H-thieno[2,3-c]pyridine-3-carboxamide], the Ki in assay [1] and in assay [3] was < 25 nM each time. Besides, the half-inhibitory concentration (IC50) in assay [2] lay in the range of 50 to 80 nM.

On to `CN(C)C1CCN(Cc2cc(NC(=O)c3csc4c3CCN(C(=O)c3cnc5ccccn35)C4)cc(C(F)(F)F)c2)C1` (stereo not drawn) [Example 56, N-(3-((3-(dimethylamino)pyrrolidin-1-yl)methyl)-5-(trifluoromethyl)phenyl)-6-(imidazo[1,2-a]pyridine-3-carbonyl)-4,5,6,7-tetrahydrothieno[2,3-c]pyridine-3-carboxamide], for which the Ki in assay [1] and in assay [3] was < 25 nM each time. For the same compound, the IC50 in assay [2] was < 25 nM.

Turning to `Cn1nc(NC(=O)c2csc3c2CCN(Cc2cnc4[nH]ccc4c2)C3)cc1C(F)(F)F` [Example 169, 6-((1H-pyrrolo[2,3-b]pyridin-5-yl)methyl)-N-(1-methyl-5-(trifluoromethyl)-1H-pyrazol-3-yl)-4,5,6,7-tetrahydrothieno[2,3-c]pyridine-3-carboxamide], the Ki in assay [1] and in assay [3] was < 25 nM in each case. In addition, the IC50 in assay [2] is < 25 nM.

As for `O=C(Nc1cc(CN2CCC2)cc(C(F)(F)F)c1)c1csc2c1CCN(C(=O)c1cnc3ccccn13)C2` [Example 52, N-(3-(azetidin-1-ylmethyl)-5-(trifluoromethyl)phenyl)-6-(imidazo[1,2-a]pyridine-3-carbonyl)-4,5,6,7-tetrahydrothieno[2,3-c]pyridine-3-carboxamide], the Ki in assay [1] and in assay [3] was < 25 nM in each case. Besides, in assay [2], the IC50 was < 25 nM.

Regarding `Cn1nc(C(C)(C)C)cc1NC(=O)c1csc2c1CCN(C(=O)c1cnc3ccc(Cl)cn13)C2` [Example 83, N-(3-(tert-butyl)-1-methyl-1H-pyrazol-5-yl)-6-(6-chloroimidazo[1,2-a]pyridine-3-carbonyl)-4,5,6,7-tetrahydrothieno[2,3-c]pyridine-3-carboxamide], the Ki in assay [1] and in assay [3] was < 25 nM throughout. The compound further displayed an IC50 in assay [2] of 25 to 50 nM.
